Consider four compounds from patent publication US20040037022A1, “Aminoalcohol derivatives” (priority 2000, published 2004).

Data set [1] relates to anesthetized dog. The data set can be described thus: Effect on the increase in intravesical pressure induced by carbachol in anesthetized dog. Type of data set: in vivo. The settings on record: 0.32 mg/kg by intra-duodena route 30 minutes before carbachol (1.8 μg/kg); female Beagle dogs under halothane anesthesia; N = 2; Control 7.0 ± 1.0. The procedure:
Effect on the increase in intravesical pressure induced by carbachol in anesthetized dog
Female Beagle dogs weighing 8.0-15.0 kg were fasted for 24 hours and maintained under halothane anesthesia. A 12F Foley catheter was lubricated with water soluble jelly, inserted into the urethral orifice and advanced approximately 10 cm until the balloon tip was placed well inside the bladder. The balloon was then inflated with 5 ml of room air and catheter slowly withdrawn just part the first resistance that is felt at the bladder neck. Urine was completely drained out through the catheter, and 30 ml of biological saline was infused. The catheter was connected to pressure transducer, and intravesical pressure was continuously recorded. The test compound was injected by intra-duodena route at 30 minutes before the administration of carbachol (1.8 μg/kg).

`O=C(Nc1ccc(C[C@@H](CO)NC[C@H](O)COc2ccccc2)cc1)c1ccccc1` [4-(2), N-[4-[(2S)-3-Hydroxy-2-[[(2S)-2-hydroxy-3-phenoxypropyl)amino]propyl]phenyl)benzamide]: the melting point was 124 to 125 °C. On the same count and under the same terms, as for `CN(C(=O)c1ccccc1)c1ccc(C[C@@H](CO)NC[C@H](O)COc2ccccc2)cc1` [4-(11), N-[4-[(2S)-3-Hydroxy-2-[[(2S)-2-hydroxy-3-phenoxypropyl]amino]propyl]phenyl]-N-methylbenzamide], the figure is 115 to 116 °C; as for `CCNC(=O)Nc1ccc(C[C@@H](CO)NC[C@H](O)COc2ccccc2)cc1` [Example 2, N-ethyl-N′-[4-[(2S)-3-hydroxy-2-[[(2S)-2-hydroxy-3-phenoxypropyl]amino]-propyl]phenyl]urea], 129 to 130 °C. Consider `O=C(Nc1ccc(C[C@@H](CO)NC[C@H](O)COc2ccccc2)cc1)c1ccc[nH]1` [Test Compound (1), N-[4-[(2S)-3-Hydroxy-2-[[(2S)-2-hydroxy-3-phenoxypropyl)amino]propyl]phenyl]-1H-pyrrole-2-carboxamide], for which, in data set [1], the “Increase in intravesical pressure” value came to 2.6 ± 0.05 mmHg.

Usually melting point stands for the temperature, or range, at which the solid turns liquid.
